Assays:
platelet lipoxygenase = biological target: T1, platelet lipoxygenase (Homo sapiens, UniProt P18054); assay: Inhibition of the platelet lipoxygenase (synthesis of HETE), metabolism of radioactively labelled arachidonic acid by washed human platelets; type: cell-based; conditions: in vitro
T1 construct: metabolism of radioactively labelled arachidonic acid by washed human platelets; endogenous in cells; host or cells: washed human platelets
T1 sequence (P18054 1-663): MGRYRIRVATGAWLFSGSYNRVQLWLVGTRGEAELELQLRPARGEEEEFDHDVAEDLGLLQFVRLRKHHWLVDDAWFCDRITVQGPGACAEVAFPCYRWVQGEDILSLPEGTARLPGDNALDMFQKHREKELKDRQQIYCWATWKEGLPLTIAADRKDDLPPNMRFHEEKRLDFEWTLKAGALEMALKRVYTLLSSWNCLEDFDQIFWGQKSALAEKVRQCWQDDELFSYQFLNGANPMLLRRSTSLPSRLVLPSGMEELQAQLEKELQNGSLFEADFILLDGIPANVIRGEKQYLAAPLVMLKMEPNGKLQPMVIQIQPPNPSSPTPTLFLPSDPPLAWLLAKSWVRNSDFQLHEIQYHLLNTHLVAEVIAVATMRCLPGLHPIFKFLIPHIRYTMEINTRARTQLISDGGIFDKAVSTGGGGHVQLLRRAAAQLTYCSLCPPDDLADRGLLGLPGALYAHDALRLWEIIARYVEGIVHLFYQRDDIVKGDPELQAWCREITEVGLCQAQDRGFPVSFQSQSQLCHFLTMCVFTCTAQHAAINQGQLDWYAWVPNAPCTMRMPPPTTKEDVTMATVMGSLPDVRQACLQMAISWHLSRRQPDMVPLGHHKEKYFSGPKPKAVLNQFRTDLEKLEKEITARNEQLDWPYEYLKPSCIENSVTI
Experimental: Use is made in this test method of the metabolism of radioactively labelled arachidonic acid by washed human platelets. In this in vitro test, the radioactively labelled metabolites are extracted from the reaction mixture and separated by thin layer chromatography. The autoradiogram is evaluated on a thin layer scanner. Under these test conditions, the labelled metabolites are separated from the unreacted arachidonic acid and are subsequently quantitatively evaluated. The distribution of the radioactivity in the cyclooxygenase products, formed during metabolism, thromboxane B2 (TXB2) and 12-hydroxy-5,8,10-heptadecatrienoic acid (HHT) and the lipoxygenase product 12-hydroxy-5,8,11,14-eicosatetraenoic acid (HETE), as influenced by the inhibitors, gives a measure of the inhibition of the enzymes.
The inhibition of lipoxygenase by the sulphenamides according to the invention can be measured by the inhibition of the synthesis of HETE.

leucocytes = assay: Inhibition of the migration of leucocytes after local administration by a sponge soaked in active compound under the dorsal skin of rats; type: in vivo; conditions: 10 mg/rat
From the text: The sulphenamides according to the present invention are also active in vivo. […] The following Table 2 summarises the activities of some illustrative sulphenamides after local administration, by introduction of a piece of sponge soaked in the active compound under the dorsal skin of rats.

[1] = tested on: lipoxygenase; cyclooxygenase; conditions: in words; one statement for all four named inhibitors; cited from earlier work

SMILES	Minimum effective inhibitory concentration (at least 50% inhibition), inhibition of the platelet lipoxygenase (synthesis of HETE) (platelet lipoxygenase)	Inhibition of the migration of leucocytes (control = 0%) (leucocytes) [%]	Selectivity/potency of known inhibitors of lipoxygenase [1]
O=C1OCCN1Sc1ccccc1 [Example 2, 3-phenylthio-oxazolidin-2-one]	10^-6 g/ml	55	–
CCCCCC=CCC=CCC=CCC=CCCCC(=O)O [5,8,11,14-eicosatetraenoic acid]	–	–	either simultaneously inhibitors of cyclooxygenase or only active at very high concentrations
CC(Cc1ccc(O)c(O)c1)C(C)Cc1ccc(O)c(O)c1 (stereo not drawn) [nordihydroguaiaretic acid]	–	–	either simultaneously inhibitors of cyclooxygenase or only active at very high concentrations
O=C1OCCN1Sc1ccc(Cl)cc1 [Example 4, 3-(4-chlorophenylthio)-oxazolidin-2-one]	10^-7 g/ml	80	–
O=C1CCN(c2ccccc2)N1 [phenidone]	–	–	either simultaneously inhibitors of cyclooxygenase or only active at very high concentrations
O=c1scc(-c2ccccc2)n1Sc1ccc(Cl)cc1 [Example 10, 3-(4-chlorophenylthio)-4-phenylthiazolin-2-one]	–	53	–
CC(C)(C)c1ccc(SN2CCOC2=O)cc1 [Example 5, 3-(4-tert.-butylphenylthio)-oxazolidin-2-one]	–	72	–
